Earlier results on one molecule are cited in patent publication US20130202654A1, “Topical Foam Composition” (priority 2009, published 2013).

Experiment in series [1]: not given
This is another data set of the same source.

Experiment in series [2]: not given
The source holds these as a separate data set.

Read-outs that look alike come from different tables or passages of the source.

What is called Tmax is the time at which the peak concentration occurs. A word on the half-life: it is how long it takes for the measured level to halve. A word on the Cmax: it is the maximum level reached in the sampled fluid or tissue. Turning to `CO[C@H]1/C=C/O[C@@]2(C)Oc3c(C)c(O)c4c(O)c(c5c(nc6cc(C)ccn65)c4c3C2=O)NC(=O)/C(C)=C\C=C\[C@H](C)[C@H](O)[C@@H](C)[C@@H](O)[C@@H](C)[C@H](OC(C)=O)[C@@H]1C` [Rifaximin, (2S,16Z,18E,20S,21S,22R,23R,24R,25S,26S,27S,28E)-5,6,21,23,25-pentahydroxy-27-methoxy-2,4,11,16,20,22,24,26-octamethyl-2,7-(epoxypentadeca-[1,11,13]trienimino)benzofuro[4,5-e]pyrido[1,2-a]-benzimida-zole-1,15(2H)-dione,25-acetate], for the setting “in vivo”, the Tmax was 0.8 h and the half-life was 1.8 h. Moreover, the Cmax (low systemic absorption) is reported as 3.4 ng/mL. Besides, in series [1], the “bound to plasma proteins” value was 67.5%. In addition, the “solubility in alcohol, ethyl acetate, chloroform and toluene” value in series [2] (alcohol, ethyl acetate, chloroform, toluene) is given as “soluble”. Besides, in series [2] (alcohols), the solubility in alcohols result was “readily soluble”. In addition, the solubility in water result in series [2] is reported as “water insoluble”. In addition, the solubility in water result in series [2] (listed as rifaximin) is “virtually insoluble in water”.
